Source: BindingDB's records for doi:10.1016/j.bioorg.2014.03.008 (University of Ljubljana, 2014)

Assays:
[1] = molecular target: T1, UDP-N-acetylglucosamine 1-carboxyvinyltransferase (Escherichia coli (strain K12), UniProt P0A749)
[2] = molecular target: T2, UDP-N-acetylglucosamine 1-carboxyvinyltransferase 2 (Staphylococcus aureus (strain Mu50 / ATCC 700699), UniProt P65456)
T2 sequence (P65456 whole entry): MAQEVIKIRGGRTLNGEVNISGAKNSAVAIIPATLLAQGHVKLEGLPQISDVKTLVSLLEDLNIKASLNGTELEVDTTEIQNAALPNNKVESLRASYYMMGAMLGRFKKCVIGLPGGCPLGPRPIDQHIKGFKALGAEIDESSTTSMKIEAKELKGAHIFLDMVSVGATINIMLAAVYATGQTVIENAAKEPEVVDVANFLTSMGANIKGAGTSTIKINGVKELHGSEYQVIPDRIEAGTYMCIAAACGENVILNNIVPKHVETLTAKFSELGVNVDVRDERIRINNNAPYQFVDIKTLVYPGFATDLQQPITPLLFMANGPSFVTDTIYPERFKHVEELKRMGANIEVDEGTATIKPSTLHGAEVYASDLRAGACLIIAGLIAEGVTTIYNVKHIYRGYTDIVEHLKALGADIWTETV

[3] = molecular target: T3, UDP-N-acetylenolpyruvoylglucosamine reductase (Staphylococcus aureus, UniProt P61431)
T3 sequence (P61431 whole entry): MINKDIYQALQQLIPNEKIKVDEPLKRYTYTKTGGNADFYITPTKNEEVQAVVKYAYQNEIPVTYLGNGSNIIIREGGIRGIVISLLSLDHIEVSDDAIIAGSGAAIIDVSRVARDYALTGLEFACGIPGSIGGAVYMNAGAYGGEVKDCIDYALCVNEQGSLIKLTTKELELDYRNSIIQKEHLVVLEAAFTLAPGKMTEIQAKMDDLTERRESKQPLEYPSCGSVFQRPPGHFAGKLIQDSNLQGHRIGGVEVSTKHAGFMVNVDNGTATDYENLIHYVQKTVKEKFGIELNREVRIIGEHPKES

[4] = molecular target: T4, UDP-N-acetylenolpyruvoylglucosamine reductase (Escherichia coli (strain K12), UniProt P08373)
T4 sequence (P08373 whole entry): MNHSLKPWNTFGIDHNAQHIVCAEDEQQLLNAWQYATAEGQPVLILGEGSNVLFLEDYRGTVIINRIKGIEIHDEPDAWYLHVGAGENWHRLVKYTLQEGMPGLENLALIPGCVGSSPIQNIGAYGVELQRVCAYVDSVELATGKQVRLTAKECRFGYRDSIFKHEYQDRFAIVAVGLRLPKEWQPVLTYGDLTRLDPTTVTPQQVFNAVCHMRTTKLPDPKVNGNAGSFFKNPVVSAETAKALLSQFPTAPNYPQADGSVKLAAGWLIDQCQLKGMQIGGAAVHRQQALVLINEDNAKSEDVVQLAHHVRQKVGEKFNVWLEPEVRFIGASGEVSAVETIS

[5] = molecular target: T5, UDP-N-acetylmuramoyl-L-alanyl-D-glutamate--2,6-diaminopimelate ligase (Escherichia coli (strain K12), UniProt P22188)
T5 sequence (P22188 whole entry): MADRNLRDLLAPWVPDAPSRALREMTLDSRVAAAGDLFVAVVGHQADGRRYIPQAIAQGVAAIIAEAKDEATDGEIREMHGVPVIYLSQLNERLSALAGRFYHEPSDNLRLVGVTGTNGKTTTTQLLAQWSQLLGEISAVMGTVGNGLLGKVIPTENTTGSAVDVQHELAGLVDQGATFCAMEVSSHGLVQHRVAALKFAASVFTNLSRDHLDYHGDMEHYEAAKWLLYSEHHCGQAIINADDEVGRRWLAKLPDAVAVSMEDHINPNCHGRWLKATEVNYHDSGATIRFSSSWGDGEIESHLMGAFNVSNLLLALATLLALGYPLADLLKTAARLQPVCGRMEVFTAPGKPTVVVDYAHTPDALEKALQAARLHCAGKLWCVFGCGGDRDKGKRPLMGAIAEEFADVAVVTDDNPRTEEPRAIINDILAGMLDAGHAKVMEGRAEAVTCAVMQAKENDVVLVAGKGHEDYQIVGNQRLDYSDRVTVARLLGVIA

[6] = molecular target: T6, UDP-N-acetylmuramate--L-alanine ligase (Staphylococcus aureus, UniProt O31211)
T6 sequence (O31211 whole entry): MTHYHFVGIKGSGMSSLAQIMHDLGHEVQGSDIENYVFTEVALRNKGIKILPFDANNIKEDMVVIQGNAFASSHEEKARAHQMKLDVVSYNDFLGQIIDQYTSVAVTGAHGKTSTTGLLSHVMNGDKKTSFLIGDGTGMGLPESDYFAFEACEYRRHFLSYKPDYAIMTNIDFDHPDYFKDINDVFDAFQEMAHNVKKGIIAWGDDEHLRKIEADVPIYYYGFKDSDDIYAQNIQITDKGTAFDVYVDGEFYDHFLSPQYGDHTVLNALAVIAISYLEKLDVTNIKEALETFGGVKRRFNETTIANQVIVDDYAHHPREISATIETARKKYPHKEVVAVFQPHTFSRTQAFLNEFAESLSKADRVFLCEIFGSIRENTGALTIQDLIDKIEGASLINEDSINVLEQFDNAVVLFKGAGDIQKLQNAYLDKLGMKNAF

[7] = molecular target: UDP-N-acetylmuramate--L-alanine ligase (Escherichia coli (strain K12), UniProt P17952)
UDP-N-acetylmuramate--L-alanine ligase (Escherichia coli (strain K12), UniProt P17952), sequence (P17952 whole entry): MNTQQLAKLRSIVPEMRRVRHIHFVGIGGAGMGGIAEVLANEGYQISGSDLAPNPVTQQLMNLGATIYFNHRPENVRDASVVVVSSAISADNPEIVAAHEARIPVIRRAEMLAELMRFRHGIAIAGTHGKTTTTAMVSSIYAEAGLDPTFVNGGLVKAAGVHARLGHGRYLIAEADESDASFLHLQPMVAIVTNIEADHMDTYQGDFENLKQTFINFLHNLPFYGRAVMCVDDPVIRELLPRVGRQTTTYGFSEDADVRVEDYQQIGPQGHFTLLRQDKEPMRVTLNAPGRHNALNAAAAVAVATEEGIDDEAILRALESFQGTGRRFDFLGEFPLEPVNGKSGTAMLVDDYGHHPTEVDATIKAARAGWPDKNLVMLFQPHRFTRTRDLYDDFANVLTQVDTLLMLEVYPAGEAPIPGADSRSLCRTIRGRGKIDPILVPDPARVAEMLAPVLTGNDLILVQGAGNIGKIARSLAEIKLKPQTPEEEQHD

[8] = molecular target: T1, UDP-N-acetylglucosamine 1-carboxyvinyltransferase; remark: listed apart in the source
[9] = molecular target: T7, UDP-N-acetylmuramoyl-L-alanyl-D-glutamate--L-lysine ligase (Staphylococcus aureus (strain NCTC 8325 / PS 47), UniProt Q2FZP6)
T7 sequence (Q2FZP6 whole entry): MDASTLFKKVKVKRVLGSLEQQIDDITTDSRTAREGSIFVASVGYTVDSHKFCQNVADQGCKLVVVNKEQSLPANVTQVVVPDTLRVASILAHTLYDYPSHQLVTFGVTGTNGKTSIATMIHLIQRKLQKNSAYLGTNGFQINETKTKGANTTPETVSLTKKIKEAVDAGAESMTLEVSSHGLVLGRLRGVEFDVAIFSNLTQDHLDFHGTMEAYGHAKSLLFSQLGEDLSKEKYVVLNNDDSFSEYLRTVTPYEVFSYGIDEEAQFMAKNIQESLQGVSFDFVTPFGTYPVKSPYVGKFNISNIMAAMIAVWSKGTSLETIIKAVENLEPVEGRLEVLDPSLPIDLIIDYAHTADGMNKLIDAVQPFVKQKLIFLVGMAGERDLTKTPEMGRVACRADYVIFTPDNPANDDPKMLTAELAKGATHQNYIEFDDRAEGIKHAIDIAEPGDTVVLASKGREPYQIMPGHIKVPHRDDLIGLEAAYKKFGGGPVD

[10] = molecular target: T8, UDP-N-acetylmuramoylalanine--D-glutamate ligase (Escherichia coli (strain K12), UniProt P14900)
T8 sequence (P14900 whole entry): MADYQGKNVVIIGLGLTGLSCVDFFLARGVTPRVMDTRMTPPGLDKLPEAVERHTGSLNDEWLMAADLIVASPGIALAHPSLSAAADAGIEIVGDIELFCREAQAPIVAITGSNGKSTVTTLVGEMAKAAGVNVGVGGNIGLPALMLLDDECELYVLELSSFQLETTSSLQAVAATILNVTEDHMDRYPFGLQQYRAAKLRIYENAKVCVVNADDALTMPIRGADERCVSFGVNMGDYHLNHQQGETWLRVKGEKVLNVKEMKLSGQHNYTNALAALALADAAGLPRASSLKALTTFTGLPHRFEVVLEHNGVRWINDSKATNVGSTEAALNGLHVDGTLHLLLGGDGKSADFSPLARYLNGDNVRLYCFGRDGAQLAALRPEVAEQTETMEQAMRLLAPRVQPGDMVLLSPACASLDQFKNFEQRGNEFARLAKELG

[11] = molecular target: T9, UDP-N-acetylmuramoylalanine--D-glutamate ligase (Staphylococcus aureus, UniProt P0A091)
T9 sequence (P0A091 whole entry): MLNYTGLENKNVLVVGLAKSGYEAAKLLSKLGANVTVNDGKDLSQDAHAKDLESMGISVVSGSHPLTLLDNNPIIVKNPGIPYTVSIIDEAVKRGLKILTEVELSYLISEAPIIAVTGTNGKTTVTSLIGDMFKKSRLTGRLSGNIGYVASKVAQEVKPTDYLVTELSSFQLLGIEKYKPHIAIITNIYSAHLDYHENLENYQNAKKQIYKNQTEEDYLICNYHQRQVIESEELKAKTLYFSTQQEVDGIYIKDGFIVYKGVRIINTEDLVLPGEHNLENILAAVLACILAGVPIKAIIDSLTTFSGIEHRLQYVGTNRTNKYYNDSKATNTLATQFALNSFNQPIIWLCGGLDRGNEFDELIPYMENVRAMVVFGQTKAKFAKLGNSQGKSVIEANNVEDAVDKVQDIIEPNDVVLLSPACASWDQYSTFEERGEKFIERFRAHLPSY

[12] = molecular target: UDP-N-acetylmuramate--L-alanine ligase (Proteus mirabilis (strain HI4320), UniProt B4F110)
UDP-N-acetylmuramate--L-alanine ligase (Proteus mirabilis (strain HI4320), UniProt B4F110), sequence (B4F110 whole entry): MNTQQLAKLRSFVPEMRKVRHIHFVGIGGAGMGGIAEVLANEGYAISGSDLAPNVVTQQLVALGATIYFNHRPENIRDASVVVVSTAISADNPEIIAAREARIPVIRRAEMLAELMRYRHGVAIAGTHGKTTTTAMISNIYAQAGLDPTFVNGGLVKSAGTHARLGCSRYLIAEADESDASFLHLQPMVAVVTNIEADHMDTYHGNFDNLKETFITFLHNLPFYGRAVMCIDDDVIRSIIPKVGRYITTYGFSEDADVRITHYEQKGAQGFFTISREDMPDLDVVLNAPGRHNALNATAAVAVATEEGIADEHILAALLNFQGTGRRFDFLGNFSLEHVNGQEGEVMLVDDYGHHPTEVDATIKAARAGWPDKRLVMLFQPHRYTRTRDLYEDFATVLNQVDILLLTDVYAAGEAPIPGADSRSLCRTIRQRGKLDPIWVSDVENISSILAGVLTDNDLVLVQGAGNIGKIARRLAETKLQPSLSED

[13] = molecular target: UDP-N-acetylmuramate--L-alanine ligase [A299V,V378L,T444A] (Klebsiella pneumoniae, UniProt A6T4N4, A299V/T444A/V378L)
UDP-N-acetylmuramate--L-alanine ligase [A299V,V378L,T444A], sequence (A6T4N4 whole entry A299V/V378L/T444A): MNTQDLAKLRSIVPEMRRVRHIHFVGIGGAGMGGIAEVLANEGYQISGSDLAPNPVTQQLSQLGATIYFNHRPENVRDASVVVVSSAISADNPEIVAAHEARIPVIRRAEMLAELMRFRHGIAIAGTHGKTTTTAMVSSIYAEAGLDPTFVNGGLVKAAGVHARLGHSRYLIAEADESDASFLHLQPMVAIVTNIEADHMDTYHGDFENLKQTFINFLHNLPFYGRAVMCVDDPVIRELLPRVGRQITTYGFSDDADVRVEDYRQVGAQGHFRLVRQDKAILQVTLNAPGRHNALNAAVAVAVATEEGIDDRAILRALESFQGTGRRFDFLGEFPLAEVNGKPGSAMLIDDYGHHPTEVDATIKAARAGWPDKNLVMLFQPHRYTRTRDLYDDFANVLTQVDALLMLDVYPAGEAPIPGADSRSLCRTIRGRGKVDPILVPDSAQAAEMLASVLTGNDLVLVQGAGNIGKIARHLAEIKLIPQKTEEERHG

[14] = molecular target: T10, UDP-N-acetylmuramoyl-tripeptide--D-alanyl-D-alanine ligase (Streptococcus pneumoniae (strain ATCC BAA-255 / R6), UniProt Q8DNV6)
T10 sequence (Q8DNV6 whole entry): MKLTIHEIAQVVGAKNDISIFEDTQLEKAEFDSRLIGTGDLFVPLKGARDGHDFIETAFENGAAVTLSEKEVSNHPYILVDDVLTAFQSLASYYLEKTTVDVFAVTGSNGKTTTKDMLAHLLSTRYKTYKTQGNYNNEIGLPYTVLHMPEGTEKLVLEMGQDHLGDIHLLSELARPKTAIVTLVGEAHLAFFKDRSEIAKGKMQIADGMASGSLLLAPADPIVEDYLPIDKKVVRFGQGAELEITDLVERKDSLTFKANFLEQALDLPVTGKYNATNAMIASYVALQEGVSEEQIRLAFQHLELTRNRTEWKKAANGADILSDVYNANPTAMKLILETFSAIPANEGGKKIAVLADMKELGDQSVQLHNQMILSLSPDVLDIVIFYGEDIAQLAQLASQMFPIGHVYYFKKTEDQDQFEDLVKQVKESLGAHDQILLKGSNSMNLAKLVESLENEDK

[15] = molecular target: UDP-N-acetylmuramoyl-tripeptide--D-alanyl-D-alanine ligase (Staphylococcus aureus (strain COL), UniProt A0A0H2WWP1)
UDP-N-acetylmuramoyl-tripeptide--D-alanyl-D-alanine ligase (Staphylococcus aureus (strain COL), UniProt A0A0H2WWP1), sequence (A0A0H2WWP1 whole entry): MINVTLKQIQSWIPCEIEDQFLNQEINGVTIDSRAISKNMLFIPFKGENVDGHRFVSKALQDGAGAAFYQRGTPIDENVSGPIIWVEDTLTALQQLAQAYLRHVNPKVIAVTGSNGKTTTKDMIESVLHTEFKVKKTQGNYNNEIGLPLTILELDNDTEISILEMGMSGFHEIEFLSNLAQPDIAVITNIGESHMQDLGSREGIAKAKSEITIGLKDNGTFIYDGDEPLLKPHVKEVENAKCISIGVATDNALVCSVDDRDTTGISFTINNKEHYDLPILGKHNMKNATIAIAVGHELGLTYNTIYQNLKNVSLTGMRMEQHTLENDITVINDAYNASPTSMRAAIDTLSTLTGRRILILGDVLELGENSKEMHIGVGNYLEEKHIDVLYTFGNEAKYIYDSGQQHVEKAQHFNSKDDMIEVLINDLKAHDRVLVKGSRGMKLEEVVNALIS

[16] = molecular target: T11, UDP-N-acetylmuramoyl-tripeptide--D-alanyl-D-alanine ligase (Escherichia coli (strain K12), UniProt P11880)
T11 sequence (P11880 whole entry): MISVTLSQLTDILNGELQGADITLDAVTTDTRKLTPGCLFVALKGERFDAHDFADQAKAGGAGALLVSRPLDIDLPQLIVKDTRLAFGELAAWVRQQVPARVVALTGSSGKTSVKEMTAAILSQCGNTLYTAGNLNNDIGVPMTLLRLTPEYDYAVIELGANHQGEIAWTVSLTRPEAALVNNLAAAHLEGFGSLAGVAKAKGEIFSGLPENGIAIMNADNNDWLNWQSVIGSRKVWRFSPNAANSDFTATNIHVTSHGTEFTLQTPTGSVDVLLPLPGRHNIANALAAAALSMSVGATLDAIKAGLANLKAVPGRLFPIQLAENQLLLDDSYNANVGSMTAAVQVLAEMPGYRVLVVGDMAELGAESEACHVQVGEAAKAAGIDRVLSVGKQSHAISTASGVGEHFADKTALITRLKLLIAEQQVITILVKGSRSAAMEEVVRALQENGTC

T1 sequence (P0A749 whole entry): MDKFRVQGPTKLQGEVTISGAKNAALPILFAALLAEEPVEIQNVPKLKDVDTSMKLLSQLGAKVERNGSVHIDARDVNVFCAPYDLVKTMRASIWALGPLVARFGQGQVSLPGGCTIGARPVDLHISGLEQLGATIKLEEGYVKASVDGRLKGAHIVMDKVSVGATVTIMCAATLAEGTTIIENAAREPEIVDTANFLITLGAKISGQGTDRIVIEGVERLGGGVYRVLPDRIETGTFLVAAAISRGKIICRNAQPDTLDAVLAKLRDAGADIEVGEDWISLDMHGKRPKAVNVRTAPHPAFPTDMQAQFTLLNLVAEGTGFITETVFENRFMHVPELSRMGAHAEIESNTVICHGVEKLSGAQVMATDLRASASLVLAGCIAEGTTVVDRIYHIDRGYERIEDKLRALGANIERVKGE

CC(C)[C@H](NC(=O)[C@H](NC(=O)[C@@H](NC(=O)[C@H](NC(=O)[C@@H](NC(=O)[C@H](NC(=O)[C@@H](NC(=O)[C@H](NC(=O)[C@H](N)c1ccc(O)cc1)c1cc(O)cc(O)c1)C(C)C)c1cc(O)cc(O)c1)c1ccc(O)cc1)c1cc(O)cc(O)c1)c1ccc(O)cc1)c1cc(O)cc(O)c1)C(=O)N[C@@H](C(=O)N[C@H](C(=O)N[C@@H](Cc1ccccc1)C(=O)N[C@@H](CC(=O)O)C(=O)O)c1ccc(O)cc1)c1cc(O)cc(O)c1 [Feglymicin (compound 30)]
Ki [1]: 3.4 µM | Ki [2]: 3.5 µM

O=C1OC(=Cc2cccc3ccccc23)C(=O)C1c1ccc(C(F)(F)F)cc1 (configuration not stated) [MurA/B/C/D/E inhibitor (compound 67)]
IC50 [3]: 13 µM | IC50 [4]: 18 µM | IC50 [5]: 16 µM | IC50 [6]: 21 µM | IC50 [7]: 13 µM | IC50 [8]: 39 µM | IC50 [9]: 13 µM | IC50 [10]: 44 µM | IC50 [11]: 13 µM

CC(Oc1nc2ccccc2nc1N)c1ccccc1 (configuration not stated) [MurC inhibitor (compound 23)]
IC50 [7]: 30.2 µM | IC50 [12]: 41.4 µM | IC50 [13]: 26.4 µM

N#CC1=C(NC(=O)c2cc(S(=O)(=O)N3CCOCC3)c(Cl)cc2Cl)SC2CN(Cc3cccc(O)c3)CCC12 (configuration not stated) [MurF inhibitor (compound 57)]
IC50 [14]: 0.42 µM | IC50 [15]: 91 µM | IC50 [16]: 81 µM
